Key:
[1] = target: T1, Pancreatic alpha-amylase (Sus scrofa) (UniProt P00690); test: Inhibition of pig pancreas alpha-amylase using potato starch as substrate at 200 uM after 15 mins
T1 sequence (whole entry): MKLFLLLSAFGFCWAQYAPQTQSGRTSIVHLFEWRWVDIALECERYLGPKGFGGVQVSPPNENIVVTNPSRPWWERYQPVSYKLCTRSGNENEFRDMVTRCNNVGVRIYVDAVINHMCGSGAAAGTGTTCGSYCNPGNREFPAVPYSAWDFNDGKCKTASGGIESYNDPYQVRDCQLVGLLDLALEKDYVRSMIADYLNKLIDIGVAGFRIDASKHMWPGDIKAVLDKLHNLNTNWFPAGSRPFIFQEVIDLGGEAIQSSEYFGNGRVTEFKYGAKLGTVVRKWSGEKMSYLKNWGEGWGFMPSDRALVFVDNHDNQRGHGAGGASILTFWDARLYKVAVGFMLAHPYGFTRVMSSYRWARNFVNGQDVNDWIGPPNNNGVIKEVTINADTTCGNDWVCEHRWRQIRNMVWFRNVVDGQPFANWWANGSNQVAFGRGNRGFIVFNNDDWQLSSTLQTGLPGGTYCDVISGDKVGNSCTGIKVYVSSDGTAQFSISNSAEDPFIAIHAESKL

Saccharomyces cerevisiae = test: Inhibition of Saccharomyces cerevisiae alpha-glucosidase using PNPG as substrate at 200 uM preincubated for 10 mins followed by substrate addition measured after 10 mins
Rattus norvegicus = species: Rattus norvegicus; test: Inhibition of rat intestinal alpha-glucosidase using PNPG as substrate at 200 uM after 30 mins
[2] = Inhibition of Saccharomyces cerevisiae alpha-glucosidase using PNPG as substrate preincubated for 10 mins followed by substrate addition measured after 10 mins

Structure (SMILES) | inhibition [1] | inhibition (Saccharomyces cerevisiae) | inhibition (Rattus norvegicus) | IC50 [2]
CC1(C)CC[C@]2(C(=O)O[C@@H]3O[C@H](CO)[C@@H](O)[C@H](O)[C@H]3O)CC[C@]3(C)C(=CC[C@@H]4[C@@]5(C)C[C@@H](O)[C@H](O)C(C)(C)[C@@H]5CC[C@]43C)[C@@H]2[C@@H]1O | 7.2% | 36.1% | 7.8% | –
CC1(C)CC[C@]2(C(=O)O)CC[C@]3(C)C(=CC[C@@H]4[C@@]5(C)C[C@@H](O)[C@H](O)[C@@](C)(COC(=O)[C@H](CC(=O)O)C[C@H]6c7c(cc(O)c(O)c7O)C(=O)O[C@@H]6C(=O)O)[C@@H]5CC[C@]43C)[C@@H]2[C@@H]1O | 3.3% | 40.1% | 8.5% | –
CC1(C)CC[C@]2(C(=O)O)CC[C@]3(C)C(=CC[C@@H]4[C@@]5(C)C[C@@H](O)[C@H](O)C(C)(C)[C@@H]5CC[C@]43C)[C@@H]2[C@@H]1O | 6.2% | 48.2% | 7.8% | –
CC1(C)CC[C@]2(C(=O)O)CC[C@]3(C)C(=CC[C@@H]4[C@@]5(C)C[C@@H](O)[C@H](O)[C@@](C)(CO)[C@@H]5CC[C@]43C)[C@@H]2C1 | 9.7% | 48.8% | 4.7% | –
CC1(C)CC[C@]2(C(=O)O[C@@H]3O[C@H](CO)[C@@H](O)[C@H](O)[C@H]3O)CC[C@]3(C)C(=CC[C@@H]4[C@@]5(C)C[C@@H](O)[C@H](O)[C@@](C)(CO)[C@@H]5CC[C@]43C)[C@@H]2C1 | 5.9% | 4% | 6.4% | –
CC1(C)CC[C@]2(C(=O)O[C@@H]3O[C@H](CO)[C@@H](O)[C@H](O)[C@H]3O)CC[C@]3(C)C(=CC[C@@H]4[C@@]5(C)C[C@@H](O)[C@H](O)[C@@](C)(CO)[C@@H]5CC[C@]43C)[C@@H]2[C@@H]1O | – | 3.1% | – | –
CC1=C2C3=CC[C@@H]4[C@@]5(C)C[C@@H](O)[C@H](O)[C@@](C)(CO)[C@@H]5CC[C@@]4(C)[C@]3(C)CC[C@@]2(C(=O)O[C@@H]2O[C@H](CO)[C@@H](O)[C@H](O)[C@H]2O)CC[C@H]1C | 2.4% | 25.1% | 7.3% | –

Next, values leading:

inhibition [1] | inhibition (Saccharomyces cerevisiae) | inhibition (Rattus norvegicus) | IC50 [2] | Structure (SMILES)
4.4% | 8.2% | 6.7% | – | CC1(C)CC[C@]2(C(=O)O[C@@H]3O[C@H](CO)[C@@H](O)[C@H](O)[C@H]3O)CC[C@]3(C)C(=CC[C@@H]4[C@@]5(C)C[C@@H](O)[C@H](O)[C@@](C)(COC(=O)[C@@H](CC(=O)O)C[C@H]6c7c(cc(O)c(O)c7O)C(=O)O[C@@H]6C(=O)O)[C@@H]5CC[C@]43C)[C@@H]2[C@@H]1O
1.7% | 4.4% | 2.8% | – | CC1(C)CC[C@]2(C(=O)O)CC[C@]3(C)C(=CC[C@@H]4[C@@]5(C)C[C@@H](O)[C@H](O)[C@@](C)(CO)[C@@H]5CC[C@]43C)[C@@H]2[C@@H]1O
7.5% | 21% | 10.1% | – | CC1(C)CC[C@]2(C(=O)O)CC[C@]3(C)C(=CC[C@@H]4[C@@]5(C)C[C@@H](O)[C@H](O)[C@@](C)(CO)[C@@H]5[C@H](O)C[C@]43C)[C@@H]2C1
82.1% | 58.6% | 69.3% | 174 µM | C[C@H]1O[C@H](O[C@H]2[C@H](O)[C@@H](O)[C@@H](O[C@H]3[C@H](O)[C@@H](O)C(O)O[C@@H]3CO)O[C@@H]2CO)[C@H](O)[C@@H](O)[C@@H]1N[C@H]1C=C(CO)[C@@H](O)[C@H](O)[C@H]1O (stereo not given in full) [ACARBOSE]
5.6% | 20.7% | 9.7% | – | CC1(C)CC[C@]2(C(=O)O[C@@H]3O[C@H](CO)[C@@H](O)[C@H](O)[C@H]3O)CC[C@]3(C)C(=CC[C@@H]4[C@@]5(C)CC[C@H](O)[C@@](C)(CO)[C@@H]5CC[C@]43C)[C@@H]2[C@@H]1O
